Measured values from article PMC10586285 (ACS Omega, 2023).
Where two headings read alike, the source gives them in different places.

Tests used:
HeLa cells = experiment: Anticancer test; format: cell-based; conditions: for IC50: read-out: IC50 (Hela Cells)
Caco-2 cells = experiment: Anticancer test; format: cell-based; conditions: for IC50: read-out: IC50 (Caco-2 Cells)
DPPH antioxidant = conditions: for IC50: read-out: IC50 (Antioxidant), DPPH assay
Hep G2 cells = experiment: Anticancer test; format: cell-based; conditions: for IC50: read-out: IC50 (Hep G2)
COX-1 = COX-1 (Homo sapiens, UniProt P23219); experiment: biochemical
COX-2 = molecular target: T1, COX-2 (Homo sapiens, UniProt P35354); experiment: biochemical; conditions: for COX-2 selectivity: selectivity index = IC50 COX-1 / IC50 COX-2
T1 sequence (P35354 18-604): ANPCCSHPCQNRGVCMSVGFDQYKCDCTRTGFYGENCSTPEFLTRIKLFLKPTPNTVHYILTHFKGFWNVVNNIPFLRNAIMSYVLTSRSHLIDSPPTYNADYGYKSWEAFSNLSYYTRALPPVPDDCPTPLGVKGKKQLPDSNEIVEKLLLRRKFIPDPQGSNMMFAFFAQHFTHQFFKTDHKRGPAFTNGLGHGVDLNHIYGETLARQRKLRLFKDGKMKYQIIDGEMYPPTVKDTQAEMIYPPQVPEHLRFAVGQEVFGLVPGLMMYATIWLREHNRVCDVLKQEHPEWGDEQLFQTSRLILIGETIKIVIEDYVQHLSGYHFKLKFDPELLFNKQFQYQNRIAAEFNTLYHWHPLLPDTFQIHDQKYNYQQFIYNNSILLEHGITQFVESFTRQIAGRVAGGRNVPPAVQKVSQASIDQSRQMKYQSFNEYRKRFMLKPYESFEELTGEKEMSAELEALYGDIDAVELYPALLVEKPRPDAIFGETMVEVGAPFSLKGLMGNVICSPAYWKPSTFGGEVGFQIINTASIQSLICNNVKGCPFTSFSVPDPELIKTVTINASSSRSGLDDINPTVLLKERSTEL

[1] = cited from earlier work
[2] = cited from earlier work; remark: listed apart in the source
[3] = Hep G2 cells, MTS, 48 h, concentration range 100-20,000 nM
[4] = Caco-2 cells, MTS, 48 h, concentration range 100-20,000 nM
[5] = read-out: COX-1 IC50, human COX-1, ELISA kit
[6] = read-out: COX-2 IC50, human COX-2, ELISA kit

COX-1, sequence (P23219 24-599): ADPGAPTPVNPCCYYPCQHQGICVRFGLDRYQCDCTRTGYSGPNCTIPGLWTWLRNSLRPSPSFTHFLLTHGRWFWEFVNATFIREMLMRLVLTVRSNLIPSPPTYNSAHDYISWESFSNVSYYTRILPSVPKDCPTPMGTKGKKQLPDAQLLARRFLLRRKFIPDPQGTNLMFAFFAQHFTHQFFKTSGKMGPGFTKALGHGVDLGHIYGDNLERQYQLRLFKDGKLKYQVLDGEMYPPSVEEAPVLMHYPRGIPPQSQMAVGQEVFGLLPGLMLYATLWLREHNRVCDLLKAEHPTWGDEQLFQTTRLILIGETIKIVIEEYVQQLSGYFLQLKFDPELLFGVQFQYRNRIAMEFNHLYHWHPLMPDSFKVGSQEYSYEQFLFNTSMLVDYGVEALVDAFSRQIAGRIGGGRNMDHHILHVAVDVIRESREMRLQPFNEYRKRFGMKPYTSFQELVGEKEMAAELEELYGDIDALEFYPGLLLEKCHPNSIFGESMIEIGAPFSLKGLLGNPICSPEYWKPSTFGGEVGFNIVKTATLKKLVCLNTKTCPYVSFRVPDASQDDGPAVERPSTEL

Row | Compound | percentage inhibition of DPPH (DPPH antioxidant; conc 1 μg/mL) | percentage inhibition of DPPH (DPPH antioxidant; conc 2 μg/mL) | percentage inhibition of DPPH (DPPH antioxidant; conc 3 μg/mL) | percentage inhibition of DPPH (DPPH antioxidant; conc 5 μg/mL) | percentage inhibition of DPPH (DPPH antioxidant; conc 7 μg/mL) | percentage inhibition of DPPH (DPPH antioxidant; conc 10 μg/mL) | percentage inhibition of DPPH (DPPH antioxidant; conc 20 μg/mL) | percentage inhibition of DPPH (DPPH antioxidant; conc 30 μg/mL) | percentage inhibition of DPPH (DPPH antioxidant; conc 50 μg/mL) | IC50 (COX-1) | IC50 (COX-2) | COX-2 selectivity (COX-2) | other results
1 | OC1(Cc2ccccc2)c2ccccc2Oc2ccccc21 [Compound 1, 9-Benzyl-9H-xanthen-9-ol] | 0.31 ± 0.02% | 0.36 ± 0.02% | 0.36 ± 0.01% | 0.31 ± 0.01% | 36.40 ± 4.11% | 36.40 ± 3.31% | 40.20 ± 5.21% | 35.50 ± 1.01% | 35.10 ± 3.31% | – | – | – | IC50 (HeLa cells; Homo sapiens, HeLa, 48 h): 213 nM; inhibition at 0.2 µM (HeLa cells; Homo sapiens, HeLa, read-out: inhibition against HeLa cells): 96%; inhibition at 0.2 µM (Caco-2 cells; Homo sapiens, Caco-2, read-out: percentage inhibition against Caco-2 cells): 96%
2 | Cc1c(C)c2c(c(C)c1O)CCC(C)(C(=O)O)O2 (stereo not drawn) [Trolox, reference compound] | 37 ± 2.21% | 54 ± 3.42% | 81 ± 4.25% | 86 ± 5.33% | 91 ± 7.52% | 92 ± 10.71% | 93 ± 13.90% | 94 ± 10.89% | 94.5 ± 12.64% | – | – | – | IC50 (DPPH antioxidant): 6070 ± 800 nM
3 | N[C@@H](CSC1(c2ccccc2)c2ccccc2Sc2ccccc21)C(=O)O [Compound 7, S-(9-phenyl-9H-thioxanthen-9-yl)-L-cysteine] | 22.0 ± 3.31% | 22.0 ± 3.11% | 22.0 ± 2.22% | 29.0 ± 4.22% | 22.0 ± 1.22% | 26.0 ± 3.44% | 23.0 ± 1.11% | 23.0 ± 1.21% | 23.0 ± 3.10% | 16.7 ± 0.84 nM | 4.37 ± 0.78 nM | – | IC50 (Hela Cells) (HeLa cells; HeLa cells, MTS, 48 h, concentration range 100-20,000 nM): no activity; IC50 (Hep G2) (Hep G2 cells; [3]): did not exhibit any inhibition; COX-2 selectivity (COX-2; listed as comp (7)): 3.78
4 | N[C@@H](CSC1(c2ccccc2)c2ccccc2Oc2ccccc21)C(=O)O [Compound 6, S-(9-phenyl-9H-xanthen-9-yl)-L-cysteine] | 18.0 ± 1.02% | 18.0 ± 2.03% | 22.0 ± 1.01% | 28.0 ± 0.01% | 28.0 ± 0.01% | 30.0 ± 0.01% | 30.0 ± 0.01% | 30.0 ± 0.01% | 30.0 ± 0.01% | 42.4 ± 0.58 nM | 130 ± 1.71 nM | 0.33 | IC50 (Hep G2) (Hep G2 cells; [3]): did not exhibit any inhibition
5 | 9-Phenyl-9H-xanthen-9-ol [Compound 4] | 10 ± 0.01% | 16.0 ± 0.02% | 27.0 ± 0.01% | 33.0 ± 1.21% | 33.0 ± 2.13% | 35.0 ± 2.31% | 35.0 ± 3.31% | 39.0 ± 5.51% | 39.4 ± 2.44% | – | – | – | inhibition against HeLa cells (HeLa cells; at 0.2 μM): 98%; inhibition against Hep G2 cells (Hep G2 cells; at 0.2 μM): 100%; IC50 (Hep G2 cells; [3]): 400 ± 56 nM; percentage inhibition against Caco-2 cells (Caco-2 cells; at 0.2 μM): 98%; IC50 (Caco-2 cells; [4]): 24.6 ± 8 nM; IC50 (DPPH antioxidant): 15400 ± 6000 nM; IC50 (COX-1; [5]): 6.52 ± 0.85 nM; IC50 (COX-2; [6]): 14 ± 1.7 nM
6 | N[C@@H](CSC(c1ccccc1)(c1ccccc1)c1ccccc1)C(=O)O [STLC, S-trityl-L-cysteine] | – | – | – | – | – | – | – | – | – | – | – | – | water solubility [1]: poor; permeability [2]: poor
7 | OC1(Cc2ccccc2)c2ccccc2Sc2ccccc21 [Compound 2, 9-Benzyl-9H-thioxanthen-9-ol] | 0.26 ± 0.01% | 0.26 ± 0.03% | 0.33 ± 0.04% | 0.33 ± 0.01% | 26.00 ± 7.20% | 27.00 ± 1.03% | 28.00 ± 2.14% | 29.00 ± 1.15% | 32.00 ± 3.75% | 5.63 ± 0.74 nM | 7.2 ± 0.58 nM | 0.78 | IC50 (Hep G2 cells; Homo sapiens, HepG2, 48 h): 161 ± 41 nM; inhibition at 0.2 µM (Hep G2 cells; Homo sapiens, HepG2, read-out: inhibition against Hep G2 cells): 100%
8 | 9-Phenyl-9H-thioxanthen-9-ol [Compound 3] | 0.14 ± 0.02% | 0.15 ± 0.01% | 0.15 ± 0.03% | 0.29 ± 0.01% | 18.20 ± 1.40% | 18.00 ± 2.37% | 15.60 ± 2.01% | 19.90 ± 1.0% | 20.00 ± 3.12% | – | – | 1.67 | IC50 (Hep G2 cells; [3]): 438 ± 33 nM; IC50 (Caco-2 cells; [4]): 9.6 ± 1.1 nM; IC50 (COX-1; [5]): 12.8 ± 0.63 nM; IC50 (COX-2; [6]): 7.69 ± 0.55 nM
9 | N[C@@H](CSC1(Cc2ccccc2)c2ccccc2Oc2ccccc21)C(=O)O [Compound 5, S-(9-benzyl-9H-xanthen-9-yl)-L-cysteine] | 5.0 ± 0.01% | 6.0 ± 0.02% | 7.0 ± 0.01% | 7.0 ± 0.51% | 7.0 ± 0.67% | 7.0 ± 0.35% | 11.4 ± 1.01% | 11.4 ± 2.10% | 12.0 ± 1.33% | – | – | – | –
10 | COc1cccc2c1C(=O)c1c(O)c3c(c(O)c1C2=O)C[C@@](O)(C(=O)CO)C[C@@H]3O[C@H]1C[C@H](N)[C@H](O)[C@H](C)O1 [doxorubicin, reference compound] | – | – | – | – | – | – | – | – | – | – | – | – | IC50 (HeLa cells; Homo sapiens, HeLa, 48 h): 110 ± 15 nM; IC50 (Hep G2 cells; Homo sapiens, HepG2, 48 h): 1060 ± 43 nM; IC50 (Caco-2 cells; Homo sapiens, Caco-2, 48 h): 497 ± 0.36 nM
